Source: ChEMBL document CHEMBL5357082, “Identification and Optimization of Small Molecule Pyrazolopyrimidine TLR7 Agonists for Applications in Immuno-oncology” (ACS Med Chem Lett, 2024)

Key:
[1] = Metabolic stability in human liver microsomes assessed as compound remaining at 0.5 uM incubated for 10 mins in presence of NADPH by UV absorbance based assay; assay type: ADME, Microsome; conditions: read-out: Stability
[2] = Metabolic stability in mouse liver microsomes assessed as compound remaining at 0.5 uM incubated for 10 mins in presence of NADPH by UV absorbance based assay; assay type: ADME, Microsome; conditions: read-out: Stability
Toll-like receptor 8 = target: T1, Toll-like receptor 8 (Homo sapiens, UniProt Q9NR97); assay: Agonist activity at human TLR8
T1 sequence (Q9NR97 whole entry): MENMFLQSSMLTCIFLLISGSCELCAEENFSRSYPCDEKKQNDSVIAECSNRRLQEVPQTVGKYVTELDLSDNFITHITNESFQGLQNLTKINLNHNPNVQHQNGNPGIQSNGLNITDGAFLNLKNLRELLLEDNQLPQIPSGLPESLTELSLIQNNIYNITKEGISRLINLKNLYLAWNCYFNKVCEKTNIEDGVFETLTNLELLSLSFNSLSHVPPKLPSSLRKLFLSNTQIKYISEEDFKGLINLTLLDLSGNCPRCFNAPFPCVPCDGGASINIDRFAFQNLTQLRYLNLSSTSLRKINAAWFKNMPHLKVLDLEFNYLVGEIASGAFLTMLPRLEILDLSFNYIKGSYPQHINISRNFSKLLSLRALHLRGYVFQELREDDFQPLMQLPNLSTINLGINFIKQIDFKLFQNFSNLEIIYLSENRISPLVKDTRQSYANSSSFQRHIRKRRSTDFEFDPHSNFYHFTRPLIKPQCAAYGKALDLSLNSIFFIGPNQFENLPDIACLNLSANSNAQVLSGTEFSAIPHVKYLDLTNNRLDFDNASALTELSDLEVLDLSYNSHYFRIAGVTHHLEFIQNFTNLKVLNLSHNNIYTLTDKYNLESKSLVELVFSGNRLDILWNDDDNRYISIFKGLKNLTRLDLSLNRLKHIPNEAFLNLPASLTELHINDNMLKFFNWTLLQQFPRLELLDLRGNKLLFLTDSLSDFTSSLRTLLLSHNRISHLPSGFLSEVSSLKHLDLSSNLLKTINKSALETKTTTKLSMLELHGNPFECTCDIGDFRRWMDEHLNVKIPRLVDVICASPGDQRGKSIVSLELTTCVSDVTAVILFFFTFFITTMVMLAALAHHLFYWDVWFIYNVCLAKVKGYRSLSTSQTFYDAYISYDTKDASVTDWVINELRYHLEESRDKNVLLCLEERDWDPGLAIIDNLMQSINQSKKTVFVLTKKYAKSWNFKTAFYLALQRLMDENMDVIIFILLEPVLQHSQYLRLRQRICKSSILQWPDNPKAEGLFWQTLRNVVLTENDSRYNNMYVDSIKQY

[3] = Drug concentration in nontumor bearing Balb/C mouse at 0.5 mg/kg measured after 5 mins; assay type: ADME, organism-based; conditions: in vivo, read-out: Drug uptake
[4] = AUClast in nontumor bearing Balb/C mouse at 0.5 mg/kg; assay type: ADME, organism-based; design: dose 0.5 mg/kg; conditions: in vivo
[5] = Half life in nontumor bearing Balb/C mouse at 0.5 mg/kg; assay type: ADME, organism-based; conditions: in vivo
[6] = Clearance in nontumor bearing Balb/C mouse at 0.5 mg/kg; assay type: ADME, organism-based; conditions: in vivo

- remaining at 10 min, 0.5 µM [1]: 75%
- remaining at 10 min, 0.5 µM [2]: 81%
- EC50 (Toll-like receptor 8): > 5 µM
- concentration at 5 min [3]: 66 nM
- AUC(0-t) [4]: 0.111 µM·h
- half-life [5]: 5.6 h
- clearance [6]: 149 mL/min/kg
SMILES: CCC[C@@H](CCO)Nc1nc(N)nc2cnn(Cc3ccc(CNC4CCOCC4)cc3OC)c12
